The test has as its target T1, human TRH-DE (Homo sapiens, UniProt Q9UKU6).
T1 construct: expressed in transfected cells; host or cells: Expi 293 cells (transient expression), membrane fraction
T1 sequence (Q9UKU6 1-1069): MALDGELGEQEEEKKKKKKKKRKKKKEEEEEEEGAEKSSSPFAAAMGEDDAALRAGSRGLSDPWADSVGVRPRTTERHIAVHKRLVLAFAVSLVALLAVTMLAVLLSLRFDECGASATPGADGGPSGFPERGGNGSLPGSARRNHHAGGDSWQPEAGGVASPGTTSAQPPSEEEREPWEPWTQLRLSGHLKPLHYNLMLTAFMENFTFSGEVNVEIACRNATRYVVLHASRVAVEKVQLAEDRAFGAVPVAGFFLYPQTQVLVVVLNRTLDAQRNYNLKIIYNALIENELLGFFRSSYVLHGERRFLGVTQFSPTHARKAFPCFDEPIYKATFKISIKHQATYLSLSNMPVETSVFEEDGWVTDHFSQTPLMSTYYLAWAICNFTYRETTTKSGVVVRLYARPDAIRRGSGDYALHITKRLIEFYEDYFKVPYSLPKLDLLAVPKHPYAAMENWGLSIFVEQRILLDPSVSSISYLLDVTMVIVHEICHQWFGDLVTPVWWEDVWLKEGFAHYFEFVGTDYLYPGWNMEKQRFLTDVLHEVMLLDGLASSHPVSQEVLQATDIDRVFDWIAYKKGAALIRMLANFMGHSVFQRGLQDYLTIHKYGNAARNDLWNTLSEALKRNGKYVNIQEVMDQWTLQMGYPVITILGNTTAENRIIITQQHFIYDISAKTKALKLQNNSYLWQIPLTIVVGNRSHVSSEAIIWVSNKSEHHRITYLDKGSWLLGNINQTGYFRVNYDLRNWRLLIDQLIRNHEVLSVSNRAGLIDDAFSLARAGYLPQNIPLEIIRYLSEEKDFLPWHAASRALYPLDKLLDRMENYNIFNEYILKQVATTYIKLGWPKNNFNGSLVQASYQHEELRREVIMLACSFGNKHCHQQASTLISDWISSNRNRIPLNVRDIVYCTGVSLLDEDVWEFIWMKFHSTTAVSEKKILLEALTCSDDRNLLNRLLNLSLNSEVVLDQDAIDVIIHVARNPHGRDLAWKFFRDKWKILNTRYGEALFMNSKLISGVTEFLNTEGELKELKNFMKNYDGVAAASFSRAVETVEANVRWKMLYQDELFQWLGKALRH
The test can be described thus: TRH-DE inhibition test (RapidFire MS measurement of product Cyclo (His-Pro)). The format is biochemical. The conditions noted are these: membrane fraction of Expi 293 cells expressing human TRH-DE; 10 μM TRH substrate; room temperature, 2 hours; 16-point concentration test. In a few lines: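 Inhibition derived from product/internal-standard ratios of Cyclo(His-Pro), quantified by RapidFire triple-quadrupole MS after acetonitrile:methanol quench, with IC50 fitted over 16 concentrations. Enzyme source: membranes of Expi 293 cells transiently expressing human TRH-DE, 4 μg/ml, pH 7.4 phosphate buffer. Incubation with 10 μM substrate ran 2 h at room temperature.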

For orientation: IC50 means the concentration that inhibits the measured activity by half. Higher therefore signals lower potency. Compound `CCCN(C(=O)c1cccnc1OC)C1CC2(C1)CN(S(=O)(=O)c1cc(C)ccc1F)C2` [Example 418] registered an IC50 of 75 nM. `C[C@@H]1COc2ncccc2C(=O)N1C1CC2(C1)CN(S(=O)(=O)c1ccccc1F)C2` [Example 38]: half-maximal inhibition (IC50) was put at 12 nM. On to `C[C@@H]1COc2cc(N3CCCCCC3)ncc2C(=O)N1C1CC2(C1)CN(S(=O)(=O)c1ccccc1F)C2` [Example 159], for which it took 1 nM to reach half-maximal inhibition (IC50).

For `C[C@@H]1CCn2c(C3CC3)nc(Cl)c2C(=O)N1C1CC2(C1)CN(S(=O)(=O)c1ccccc1F)C2` [Example 299], the IC50 was determined as 33 nM. The figure for `C[C@@H]1COc2nc(Cl)cnc2C(=O)N1C1CC2(C1)CN(S(=O)(=O)c1ccccc1F)C2` [Example 40, (7R)-3-chloro-8-[2-(2-fluorophenyl)sulfonyl-2-azaspiro[3.3]heptan-6-yl]-7-methyl-6,7-dihydropyrazino[2,3-f][1,4]oxazepin-9-one] is 5 nM; for `CCCN(C(=O)c1cccnc1OCC)C1CC2(C1)CN(S(=O)(=O)c1cccc(C)c1)C2` [Example 424] it is 795 nM; for `CC1Cc2ncccc2C(=O)N1C1CC2(C1)CN(S(=O)(=O)c1ccccc1F)C2` (racemic) [Example 66] it is 31 nM. In the case of `CC1COc2ncc(F)cc2C(=O)N1C1CC2(C1)CN(S(=O)(=O)c1ccccc1F)C2` (racemic) [Example 26], the IC50 is 33 nM. The same measure for `Cc1cccc(S(=O)(=O)N2CC3(CC(N4C(=O)c5cccnc5OCC4C)C3)C2)c1` (racemic) [Example 77]: 324 nM; for `CC1c2cnccc2C(=O)N1C1CC2(C1)CN(S(=O)(=O)c1ccccc1F)C2` (racemic) [Example 295]: 355 nM; for `CC1C=Cc2cc(C(F)(F)F)cnc2C(=O)N1C1CC2(C1)CN(S(=O)(=O)c1ccccc1F)C2` (racemic) [Example 112]: 32 nM. The figure for `Cc1cnc2c(c1)OCC(C)N(C1CC3(C1)CN(S(=O)(=O)c1ccccc1F)C3)C2=O` (racemic) [Example 15] is 7 nM. Consider `CCn1c2ccccc2c(=O)n1C1CC2(C1)CN(S(=O)(=O)c1cc(C)ccc1F)C2` [Example 69], for which half-maximal inhibition (IC50) required 66 nM. The same measure for `C[C@@H]1COCCC(=O)N1C1CC2(C1)CN(S(=O)(=O)c1ccccc1F)C2` [Example 460, (3R)-4-[2-(2-fluorophenyl)sulfonyl-2-azaspiro[3.3]heptan-6-yl]-3-methyl-1,4-oxazepan-5-one]: 424 nM. The figure for `Cc1nn2c(c1C)C(=O)N(C1CC3(C1)CN(S(=O)(=O)c1ccccc1F)C3)[C@H](C)CC2` [Example 185] is 24 nM. `C[C@@H]1COc2nc(N3[C@@H]4COC[C@H]3C4)ncc2C(=O)N1C1CC2(C1)CN(S(=O)(=O)c1ccccc1F)C2` [Example 392] displayed an IC50 of 3 nM. For the compound `C[C@@H]1COc2nc(C3(C(F)(F)F)CC3)sc2C(=O)N1C1CC2(C1)CN(S(=O)(=O)c1ccccc1F)C2` [Example 183], the IC50 was 5 nM. Compound `C[C@@H]1COc2nc(N3C[C@H]4CC[C@@H](C3)O4)ncc2C(=O)N1C1CC2(C1)CN(S(=O)(=O)c1ccccc1F)C2` [Example 412] registered an IC50 of 16 nM. With `C[C@@H]1COc2c(c(C3CC3)nn2C)C(=O)N1C1CC2(C1)CN(S(=O)(=O)c1ccccc1F)C2` [Example 206], it took 5 nM to reach half-maximal inhibition (IC50).

Turning to `COCCC(=O)N1CC[C@@H](C)N(C2CC3(C2)CN(S(=O)(=O)c2ccccc2F)C3)C(=O)C1` [Example 453], the IC50 is 348 nM.

`C[C@@H]1COc2nc(C(F)(F)F)ncc2C(=O)N1C1CC2(C1)CN(S(=O)(=O)c1ccccc1F)C2` [Example 44] displayed an IC50 of 14 nM.

The compound `Cc1cnc2c(c1)C(C)N(C1CC3(C1)CN(S(=O)(=O)c1ccccc1F)C3)C2=O` (racemic) [Example 293] registered an IC50 of 121 nM.

In the case of `CCn1ncc2c1OC[C@@H](C)N(C1CC3(C1)CN(S(=O)(=O)c1ccccc1F)C3)C2=O` [Example 199], inhibition was half-maximal at 21 nM (IC50).

In turn, `C[C@@H]1CCN(C(=O)c2cc[nH]n2)CC(=O)N1C1CC2(C1)CN(S(=O)(=O)c1ccccc1F)C2` [Example 449] came in with an IC50 of 65 nM. As for `C[C@@H]1Cn2ncc(Br)c2C(=O)N1C1CC2(C1)CN(S(=O)(=O)c1ccccc1F)C2` [Example 230], the IC50 stood at 19 nM. As for `C[C@@H]1COc2conc2C(=O)N1C1CC2(C1)CN(S(=O)(=O)c1ccccc1F)C2` [Example 217], the IC50 is 35 nM.

`CC(=O)c1cnc2c(c1)OC[C@@H](C)N(C1CC3(C1)CN(S(=O)(=O)c1ccccc1F)C3)C2=O` [Example 336] had an IC50 of 2 nM. For `C[C@@H]1COc2ncc(C#N)cc2C(=O)N1C1CC2(C1)CN(S(=O)(=O)c1ccccc1F)C2` [Example 333, (3R)-4-[2-(2-fluorophenyl)sulfonyl-2-azaspiro[3.3]heptan-6-yl]-3-methyl-5-oxo-2,3-dihydropyrido[3,2-f][1,4]oxazepin-7-carbonitrile], the IC50 amounted to 18 nM.

Turning to `CC1CCNC(=O)N1C1CC2(C1)CN(S(=O)(=O)c1ccccc1F)C2` (stereo not drawn) [Example 434, 1-[2-(2-fluorophenyl)sulfonyl-2-azaspiro[3.3]heptan-6-yl]-6-methyl-1,3-diazinan-2-one], half-maximal inhibition (IC50) was put at 279 nM. In turn, `C[C@@H]1Cn2nc(F)c(Br)c2C(=O)N1C1CC2(C1)CN(S(=O)(=O)c1ccccc1F)C2` [Example 232] displayed an IC50 of 21 nM.

In turn, `C[C@@H]1CCN(C(=O)c2ccccc2)CC(=O)N1C1CC2(C1)CN(S(=O)(=O)c1ccccc1F)C2` [Example 454] came in with an IC50 of 70 nM. Regarding `CC1CCc2nc(C3CC3)sc2C(=O)N1C1CC2(C1)CN(S(=O)(=O)c1ccccc1F)C2` (single isomer, unassigned) [Example 355], it took 17 nM to reach half-maximal inhibition (IC50). The same measure for `CC1COc2nc(F)ccc2C(=O)N1C1CC2(C1)CN(S(=O)(=O)c1ccccc1F)C2` (racemic) [Example 28]: 23 nM.

For the origin of these results see US20260132127A1, “NOVEL SPIRO COMPOUND” (MITSUBISHI TANABE PHARMA CORPORATION, priority 2021, published 2026).
